{"source": "paper PMC3465485", "about": "(Antiviral research, 2012)", "key": {"[1]": {"system": "influenza A/California/07/2009 (H1N1) virus"}, "in vitro": {"assay": "in vitro", "settings": "dog"}, "[2]": {"system": "influenza A/California/07/2009 (H1N1) virus", "assay": "microbe, parasite or virus in culture", "settings": "H1N1, MDCK"}, "[3]": {"biological_target": "A/California/07/2009 neuraminidase (Influenza A virus (A/California/07/2009(H1N1)), UniProt C3W6G3)", "assay_type": "biochemical"}, "[4]": {"settings": "100 mg/kg/day; no reference given; cited from earlier work"}}, "note": "Where two headings read alike, the source gives them in different places."}
{"molecule": "NC12CC3CC(CC(C3)C1)C2", "note": "[Amantadine]", "values": [{"measurement": "antiviral activity in cell culture (in words)", "setting": "[1]", "result": "no antiviral effect"}, {"measurement": "CC50", "setting": "in vitro", "result": "> 100", "unit": "µM"}, {"measurement": "EC50", "setting": "[2]", "result": "> 100", "unit": "µM"}]}
{"molecule": "CCC(CC)O[C@@H]1C=C(C(=O)O)C[C@H](N)[C@H]1NC(C)=O", "note": "[Oseltamivir Carboxylate, Oseltamivir carboxylate]", "values": [{"measurement": "neuraminidase inhibition (in words)", "setting": "[3]", "result": "slightly less potent than the other two compounds"}, {"measurement": "EC50", "setting": "[1]", "result": "0.06 ± 0.1", "unit": "µM"}, {"measurement": "CC50", "setting": "in vitro", "result": "> 100", "unit": "µM"}]}
{"molecule": "NC(=O)c1ncn([C@@H]2O[C@H](CO)[C@@H](O)[C@H]2O)n1", "note": "[Ribavirin]", "values": [{"measurement": "toxicity in mice (in words)", "setting": "[4]", "result": "begins to cause toxicity"}, {"measurement": "EC50", "setting": "[2]", "result": "28 ± 11", "unit": "µM"}]}
{"molecule": "CC(N)C12CC3CC(CC(C3)C1)C2", "note": "(stereo not drawn) [Rimantadine]", "values": [{"measurement": "SI (CC50/EC50)", "setting": "[1]", "result": 0}, {"measurement": "antiviral activity in cell culture (in words)", "setting": "[1]", "result": "no antiviral effect"}, {"measurement": "CC50", "setting": "in vitro", "result": "22 ± 1", "unit": "µM"}, {"measurement": "EC50", "setting": "[2]", "result": "> 22", "unit": "µM"}]}
{"molecule": "CC(=O)N[C@H]1[C@H]([C@H](O)[C@H](O)CO)OC(C(=O)O)=C[C@@H]1N=C(N)N", "note": "[Zanamivir]", "values": [{"measurement": "EC50", "setting": "[1]", "result": "0.08 ± 0.07", "unit": "µM"}, {"measurement": "CC50", "setting": "in vitro", "result": "> 100", "unit": "µM"}]}
{"molecule": "Peramivir", "values": [{"measurement": "IC50", "setting": "[3]", "result": "0.0029 ± 0.0006", "unit": "µM"}, {"measurement": "CC50", "setting": "MDCK cells", "result": "> 100", "unit": "µM"}, {"measurement": "EC50", "setting": "[1]", "result": "0.04 ± 0.07", "unit": "µM"}, {"measurement": "SI (CC50/EC50)", "setting": "[1]", "result": ">2500"}]}
